In BindingDB's records for PubMed 11160654 (Kitasato University, 2001):

Target: Glutamate receptor 3 (Rattus norvegicus, UniProt P19492)
Sequence (P19492 whole entry): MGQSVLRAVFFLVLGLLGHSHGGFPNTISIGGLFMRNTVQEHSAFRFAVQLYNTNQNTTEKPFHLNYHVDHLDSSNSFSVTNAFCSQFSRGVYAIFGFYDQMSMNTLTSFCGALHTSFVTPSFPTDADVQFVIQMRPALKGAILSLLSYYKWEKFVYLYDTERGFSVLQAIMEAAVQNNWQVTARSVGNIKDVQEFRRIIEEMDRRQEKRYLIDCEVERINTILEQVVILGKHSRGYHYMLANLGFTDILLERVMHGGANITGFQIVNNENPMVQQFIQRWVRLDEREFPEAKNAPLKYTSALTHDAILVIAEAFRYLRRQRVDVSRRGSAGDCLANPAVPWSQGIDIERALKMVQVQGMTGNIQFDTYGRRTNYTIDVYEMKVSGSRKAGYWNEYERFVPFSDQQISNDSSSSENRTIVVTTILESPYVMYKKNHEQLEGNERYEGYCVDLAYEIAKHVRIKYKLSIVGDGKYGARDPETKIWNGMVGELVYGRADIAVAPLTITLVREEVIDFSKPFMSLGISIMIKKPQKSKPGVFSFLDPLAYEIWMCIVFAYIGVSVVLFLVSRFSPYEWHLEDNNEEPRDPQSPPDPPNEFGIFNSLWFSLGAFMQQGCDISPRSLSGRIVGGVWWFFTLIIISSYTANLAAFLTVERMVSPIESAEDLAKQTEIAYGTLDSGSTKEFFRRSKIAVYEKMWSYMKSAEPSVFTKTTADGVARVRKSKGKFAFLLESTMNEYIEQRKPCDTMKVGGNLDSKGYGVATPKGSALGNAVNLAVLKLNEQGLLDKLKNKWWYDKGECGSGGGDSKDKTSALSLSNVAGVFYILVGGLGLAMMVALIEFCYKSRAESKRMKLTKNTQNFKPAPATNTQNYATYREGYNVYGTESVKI

SMILES: CN[C@H](CC(=O)O)C(=O)O [NMDA]
- Ki: 3.9 µM
